Patent US20240016946A1, “DRUG-LOADED MACROMOLECULE AND PREPARATION METHOD THEREFOR” (SHANGHAI SENHUI MEDICINE CO., LTD., priority 2020, published 2024)
Where “and” joins values, the source holds several entries; their conditions need not be identical. Equal values may be shown once.

Assays:
platelet (PLT) = experiment: Effect of single intravenous injection on platelet count in beagle dogs (Test Example 5); assay type: in vivo
Procedure: Method of administration: the weight was measured and the dosing amount was calculated based on the weight; the administration regimen is shown in Table 13 below. The drugs were slowly administered by intravenous injection. Blood was collected from the jugular vein or by other suitable means, about 1 mL per sample.

[1] = Pharmacokinetic study, single intravenous injection to rats (Test Example 1); assay type: in vivo, SD rats
Procedure: • (1) Preparation of docetaxel: commercially available docetaxel injection (0.5 mL:20 mg) was diluted to 4 mg/mL with normal saline; • (2) Preparation of other test compounds: the compounds were dissolved in DMSO with a final concentration of 5%, and the solutions were diluted to 4 mg/mL with normal saline.
Female SD rats, weighing 160-180 g, 6 weeks old, SPF
Plasma samples were separated, and the esterase inhibitor DDVP was added. The samples were stored at −80° C. and tested for docetaxel level (N=3).

[2] = tested on: human lung cancer cell A549; experiment: Antitumor effect in subcutaneous tumor graft model of human lung cancer cell A549 (Test Example 3); assay type: in vivo, BALB/C nude mice; details: for Tumor volume: i.v. QW × 4 doses, docetaxel 20, 1-Z00 20, 1-Z00-J 10 mg/kg
Procedure: Samples are prepared according to Table 5 below.
BALB/C nude mice, female, 6-7 week old (the age when tumor cell inoculation was performed), weighing 16.5-22.6 g, purchased from GemPharmatech Co., Ltd., certificate No. 320727210100243463. Housing environment: SPF.
A549 cells (National Collection of Authenticated Cell Cultures/Cell Bank of Shanghai Institutes for Biological Sciences (cellbank.org.cn, SIBS)) were cultured in an F12K medium (Gibco) containing 10% fetal bovine serum. Cells were collected when growing at the exponential phase and resuspended in PBS to a suitable concentration for use in subcutaneous tumor inoculation in mice.
5×10^6 A549 cells were subcutaneously inoculated into the right side of female mice (inoculation volume: 0.1 mL/mouse). The day of inoculation was defined as day 0. When the mean tumor volume was 142.96 mm^3 (on day 13 after cell inoculation), the mice were randomly grouped according to tumor size as shown in Table 6 below (dosing volume: 10 μL/g).
After tumor inoculation, routine monitoring items included the effect of tumor growth and treatment on the normal behavior of animals, including activity, food intake and water intake, weight gain or loss (body weight was measured twice a week), abnormalities in eyes, hair, etc. Clinical symptoms observed during the experiment were all recorded in the raw data. Tumor volume calculation formula: tumor volume (mm^3)=½×(a×b^2) (where a represents long diameter and b represents short diameter). In the experiment, data collection, including measurement of tumors' long and short diameters and animals' body weight, was performed using StudyDirector™ (version: 3.1.399.19; supplier: Studylog System, Inc., S. San Francisco, CA, USA) software. Raw data measured by scales and vernier calipers were directly imported into the software. Any changes in the data were recorded in the software.
When the body weight of an individual animal decreased by >20%, it was euthanized according to animal welfare.
Relative tumor proliferation rate, T/C (%), refers to the percentage value of the relative tumor volume or tumor weight of the treatment group and the control group at a certain time point. The calculation formula is: T/C %=TRTV/CRTV×100% (TRTV: mean RTV of treatment group; CRTV: mean RTV of control group; RTV=Vt/V0, V0 is the tumor volume of the animal at the time of grouping, and Vt is the tumor volume of the animal after treatment).
All the results are expressed as mean tumor volume±SEM (standard error of the mean). The best point of drug treatment (usually after the last administration) was selected for statistical analysis between different groups. A two-way ANOVA was used to determine whether there was a significant difference in tumor volume between a treatment group and the control group. p<0.05 indicates a significant difference. Statistical analysis and graphing were both performed in the R language environment (version 3.3.1). All tests were two-tailed unless otherwise specified. A p value less than 0.05 was considered statistically significant.

[3] = Hematological analysis (complete blood count) in the A549 subcutaneous tumor graft model (Test Example 3)
Procedure: After the last administration, plasma was collected at the time points designated in Table 7 (EDTA anticoagulant tubes were used (the esterase inhibitor DDVP was added at the time of blood collection)). After plasma collection at the last time point was complete, the mice were euthanized, and tumors were collected, snap frozen and stored.

[4] = Pharmacokinetic study, single intravenous injection to beagle dogs, docetaxel macromolecules (Test Example 2); assay type: in vivo; details: single IV 3 mg/kg, free docetaxel in plasma, mean (1 male + 1 female)
Procedure: Docetaxel (84 mg/vial, commercially available) was dissolved in 5% (final volume) DMSO+30% PEG300+5% Tween 80+60% deionized water to obtain 0.6 mg/mL formulations for intravenous injection.
Beagle dogs, non-naïve, sourced from Medicilon: 999M-004.
Method of administration: the weight was measured and the dosing amount was calculated based on the weight. The drugs were slowly administered by intravenous injection. Blood was collected from the jugular vein or by other suitable means, about 1 mL per sample. Plasma samples were collected before administration and at different time points after administration and tested for free docetaxel level in plasma. For the docetaxel group, collection was performed before administration and at 0.083 h, 0.5 h, 1 h, 2 h, 4 h, 6 h, 8 h and 24 h after administration.

[5] = female SD rats, single IV 10 mg/kg, docetaxel level in plasma, N=3
[6] = rat, female SD rats, single IV 10 mg/kg, docetaxel level in plasma, N=3
[7] = day 21 after administration began, docetaxel 20, 1-Z00 20, 1-Z00-J 10 mg/kg i.v. QW × 4
[8] = A549 tumor-bearing mice after last administration, docetaxel 20, 1-Z00 20, 1-Z00-J 10 mg/kg i.v., mean ± standard deviation

Q: Which “Day 2 (24 h after administration) PLT mean value” (platelet (PLT); beagle dogs, 24 h after single IV 3 mg/kg, mean) does the source give for `O=C(NS(=O)(=O)c1ccc(N[C@@H](CSc2ccccc2)C[C@@H]2CCCN2CCO)c(S(=O)(=O)C(F)(F)F)c1)c1ccc(N2CCC([C@@H](O)c3ccccc3-c3ccc(Cl)cc3)CC2)cc1` [Compound 3] here?
A: 34.00 10^9/L

Q: What about the “Day 1 (before administration) PLT mean value” (platelet (PLT); beagle dogs, before single IV 3 mg/kg (baseline), mean) of the same compound?
A: 355.00 10^9/L

Q: And the “Difference (%) between PLT count in dogs at 24 h after administration and that before administration” value (platelet (PLT); beagle dogs, single IV 3 mg/kg)?
A: −90.42%

Q: And the “mortality (animals died)” value (platelet (PLT); beagle dogs, single IV 3 mg/kg, 3 dogs with compound 3, 2 dogs per dendrimer)?
A: 2

Q: What about the “Day 2 (24 h after administration) PLT” value (platelet (PLT); individual male beagle dog, 24 h after single IV 3 mg/kg) of the same compound?
A: 34.00 10^9/L

Q: What about the “Day 1 (before administration) PLT” value (platelet (PLT); individual male beagle dog, before single IV 3 mg/kg (baseline)) of the same compound?
A: 355.00 10^9/L

Q: Which results are given for `CC(=O)O[C@@]12CO[C@@H]1C[C@H](O)[C@@]1(C)C(=O)[C@H](O)C3=C(C)[C@@H](OC(=O)[C@H](O)[C@@H](NC(=O)OC(C)(C)C)c4ccccc4)C[C@@](O)([C@@H](OC(=O)c4ccccc4)[C@H]21)C3(C)C` [Docetaxel]?
A: AUMC0-inf [1, 5]: 2663.5 h · h · ng · mL^−1; AUMC0-t [1, 5]: 1669.3 h · h · ng · mL^−1; Kel [1, 5]: 0.3 h⁻¹; MRTIV [1, 5]: 1.8 h; AUC(0-inf) [1, 6]: 1480 ng·h/mL; AUC(0-t) [1, 6]: 1400 ng·h/mL; C0 [1, 6]: 2840 ng/mL; Cmax [1, 6]: 1990 ng/mL; clearance [1, 6]: 116 mL/min/kg; half-life [1, 6]: 2.1 h; Vd ([1]; rat, female SD rats, single IV 10 mg/kg, docetaxel level in plasma, N=3, read-out: VdSS): 12.1 L/kg; sustained-release effect, exposure and clearance (conclusion in words) ([1]; rats, IV 10 mg/kg): rapid plasma clearance and low exposure; Tumor volume ([2]; day 0 after administration began (baseline at grouping), mean ± standard error): 142.49 ± 6.17 mm^3; Tumor volume ([2]; day 3 after administration began, mean ± standard error): 187.27 ± 18.12 mm^3; Tumor volume ([2]; day 7 after administration began, mean ± standard error): 294.09 ± 32.19 mm^3; Tumor volume ([2]; day 10 after administration began, mean ± standard error): 362.73 ± 41.13 mm^3; Tumor volume ([2]; day 14 after administration began, mean ± standard error): 460.59 ± 68.72 mm^3; Tumor volume ([2]; day 17 after administration began, mean ± standard error): 502.25 ± 84.97 mm^3; T/C (relative tumor proliferation rate) [2, 7]: 33.76%; TGI (relative tumor inhibition) [2, 7]: 66.24%; Relative tumor volume ([2]; day 21 after administration began, docetaxel 20, 1-Z00 20, 1-Z00-J 10 mg/kg i.v. QW × 4, mean ± standard error): 3.87 ± 0.61; Tumor volume ([2]; day 21 after administration began, mean ± standard error): 564.93 mm^3 and 564.93 ± 108.61 mm^3; decrease of white blood cells, lymphocytes and mononuclear cells compared to the vehicle control group (factor) ([3]; 20 mg/kg i.v.): 2-3; Eosinophil EO# [3, 8]: 0.02 ± 0.02 10^9/L; Lymphocyte LYMPH# [3, 8]: 1.58 ± 0.39 10^9/L; Mononuclear cell MONO# [3, 8]: 0.11 ± 0.02 10^9/L; Neutrophil NEUT# [3, 8]: 0.81 ± 0.47 10^9/L; White blood cell count WBC [3, 8]: 2.52 ± 0.08 10^9/L; AUC(0-inf) ([4]; both sexes, dog): 2040 ng·h/mL; AUC(0-t) ([4]; both sexes, dog): 1890 ng·h/mL; clearance ([4]; both sexes, dog): 24.6 mL/min/kg; half-life ([4]; both sexes, dog): 13.5 h; Vd ([4]; both sexes, dog, read-out: Vdss): 7.39 L/kg; AUMC0-inf [4]: 10234 h·h·ng·mL^−1; AUMC0-t [4]: 3854 h·h·ng·mL^−1; Kel [4]: 0.0515 h⁻¹; Mean residence time (MRT) [4]: 5.02 h
